The chains are these.
B1: hCD105 309-317 (310L, 317V) (peptide)
peptide: SLVASFVEV
notes: also called AA 310: leucine AA 317: valine
B2: hCD105 482-490 (483L, 490V) (peptide)
peptide: SLSEFLLQV
notes: also called AA 483: leucine AA 490: valine
B3: hCD105 251-259 (peptide)
peptide: LILQGPPYV
notes: Synthetic nonamer selected from human CD105 (endoglin); also called parental peptide
B4: hCD105 482-490 (peptide)
peptide: SVSEFLLQL
notes: as for B3
B5: hCD105 298-306 (peptide)
peptide: GLLGEARML
notes: as for B3
B6: hCD105 11-19 (peptide)
peptide: ALLLASCSL
notes: as for B3
B7: hCD105 533-541 (peptide)
peptide: LLHFYTVPI
notes: as for B3
B8: hCD105 419-427 (peptide)
peptide: SMISNEAVV
notes: as for B3
B9: hCD105 605-613 (peptide)
peptide: LLTAALWYI
notes: as for B3
B10: hCD105 600-608 (peptide)
peptide: FLIGALLTA
notes: as for B3
B11: hCD105 309-317 (peptide)
peptide: SIVASFVEL
notes: as for B3
B12: hCD105 61-69 (peptide)
peptide: ILEVHVLFL
notes: as for B3

In one test the target is T1, human leukocyte antigen A2 (HLA-A2) on the acid-stripped HLA-A2 positive cell line JY (human).
T1 construct: whole, on cells; Empty, acid-stripped HLA-A2 on JY cells; also called HLA-A*0201
Briefly: competitive binding assay vs fluorescein-labeled reference peptide on acid-stripped HLA-A2 positive JY cells, flow cytometry.
Conditions: not given
LLLQGPPYV (also called AA 252: leucine) [hCD105 251-259 (252L)] gave an IC50 of at most 3.5 µM.

In turn, LLHFYTVPV (also called AA541: valine) [hCD105 533-541 (541V)] registered an IC50 of at most 3.5 µM.

Regarding LLTAALWYV (also called AA 613: valine) [hCD105 605-613 (613V)], the IC50 was at most 3.5 µM.

On to B1, for which the IC50 is at most 3.5 µM.

B2 came in with an IC50 of at most 3.5 µM.

For FLIGALLTV (also called AA 608: valine) [hCD105 600-608 (608V)], the IC50 is at most 3.5 µM.

The subject of a further test is peripheral blood lymphocytes of melanoma patients. The experiment in a line: human IFN-γ ELISPOT after in vitro peptide stimulation of PBL. The format is cell-based. Conditions: IFN-γ ELISPOT, modified versus parental peptides; Fig. 5. The procedure: To extend the sensitivity of the ELISPOT assay, PBL were stimulated once in vitro before analysis (McCutcheon et al., 1997). At day 0, PBL were thawed or freshly isolated from peripheral blood and plated in a cell concentration of 1x10^6/ml and 5 ml/well in 6-well plates (Greiner GmbH, Frickenhausen, Germany) in X-vivo medium (Cambrex Biosciences, Verviers, Belgium) with 10% heat inactivated human AB serum in the presence of 10 µM peptide (GeneScript Corporation, Piscataway, New Jersey, USA). On day 1 and 4 40 U IL-2/ml (Proleukin, Chiron GmbH, Munich, Gemany) were added to the culture. The cultured cells were tested for reactivity in ELISPOT on day 7.
The human IFN-γ ELISPOT assay was used to quantify peptide epitope-specific IFN-γ-releasing effector cells as described in Berke et al. 2000. Nitrocellulose-bottomed 96-well plates (MultiScreen MAIP N45, Millipore GmbH, Schwalbach, Germany) were activated with 35% ethanol, washed with PBS and coated with anti-IFN-γ antibody (1-D1 K, Mabtech, Hamburg, Germany). The wells were washed and blocked by X-vivo medium before adding 1x10^4 stimulator T2 cells loaded with or without 10 µM peptide and 3x10^5, 1x10^5 or 3x10^4 effector cells. After incubation overnight the wells were washed before addition of biotinylated secondary antibody (7-B6-1-Biotin, Mabtech, Hamburg, Germany). The plates were incubated for 2 h, washed, and streptavidine-enzyme conjugate (Streptavidin-ALP-PQ, Mabtech, Hamburg, Germany) was added. Incubation at room temperature for 1 h was followed by addition of enzyme substrate NBT/BCIP (Mabtech, Hamburg, Germany). The reaction was stopped by washing with tap water upon the appearance of dark purple spots. Spots were counted using the ImmunoSpot Series 2.0 Analyzer (CTL Cellular Technology Ltd., Schwäbisch Gmünd, Germany). The peptide-specific CTL frequency was calculated from the numbers of spot-forming cells. All assays were performed in duplicates. Responders were defined as having an average number of > 25 antigen-specific spots per 10^5 Cells (Spots with peptide - Spots without peptide).
With SEQ ID NO: 16 (LLTAALWYV), the “specific responses in peripheral blood of melanoma patients in comparison to control experiments and parental peptides” value (from here on “specific responses in peripheral blood”) is recorded as “multiplied”.

Consider SEQ ID NO: 15 (FLIGALLTV), for which the “specific responses in peripheral blood” value is “multiplied”.

Consider SEQ ID NO: 12 (SLVASFVEV), for which the “specific responses in peripheral blood” value was “multiplied”.

Still in this test, the particulars now being: PBL of melanoma patients prestimulated in vitro with 10 µM peptide; Figs. 4 and 5.
With SEQ ID NO: 1 (ALLLASCSL), the “specific immune responses / T cell activity in vitro (IFN-γ ELISPOT)” value is “induce T cell activity in vitro very efficiently”.

Turning to SEQ ID NO: 16 (LLTAALWYV), the “specific immune responses / T cell activity in vitro (IFN-γ ELISPOT)” value is listed as “induce T cell activity in vitro very efficiently”.

On to SEQ ID NO: 8 (LLHFYTVPI), for which the “specific immune responses / T cell activity in vitro (IFN-γ ELISPOT)” value is reported as “induce T cell activity in vitro very efficiently”.

Consider SEQ ID NO: 15 (FLIGALLTV), for which the “specific immune responses / T cell activity in vitro (IFN-γ ELISPOT)” value is “induce T cell activity in vitro very efficiently”.

As for SEQ ID NO: 12 (SLVASFVEV), the “specific immune responses / T cell activity in vitro (IFN-γ ELISPOT)” value is “induce T cell activity in vitro very efficiently”.

Regarding SEQ ID NO: 10 (LLTAALWYI), the “specific immune responses / T cell activity in vitro (IFN-γ ELISPOT)” value was “induce T cell activity in vitro very efficiently”.

For SEQ ID NO: 3 (LILQGPPYV), the “specific immune responses / T cell activity in vitro (IFN-γ ELISPOT)” value was “induce T cell activity in vitro very efficiently”.

As for SEQ ID NO: 7 (SVSEFLLQL), the “specific immune responses / T cell activity in vitro (IFN-γ ELISPOT)” value was “induce T cell activity in vitro very efficiently”.

The test system of the next test is HLA-A2/k^b transgenic mice. The experiment in a line: immunization of mice and analysis of immune responses by murine IFN-γ ELISPOT. Conditions: HLA-A2/k^b transgenic mice vaccinated with peptides and incomplete Freund's adjuvant, spleen cells in ELISPOT; Fig. 6. The format is in vivo. The procedure:
HLA-A2/k^b transgenic mice (deposited by Linda A. Sherman at MMRCC, University of North Carolina, Chapel Hill, USA) were immunized with a mixture of 5-6 CD105 peptides (5 µg/peptide) and incomplete Freund's adjuvant 7 times once weekly. Spleen cells were analyzed in a murine IFN-γ ELISPOT after in vitro stimulation. Cells were stimulated for six days with 200 U IL-2/ml and 10 µM peptide loaded, mitomycin C treated LPS blasts, generated by stimulation of HLA-A2k^b spleen cells with 25 µg/ml LPS (Sigma-Aldrich, Taufkirchen, Germany) and 7 µg/ml dextran sulfate for three days. Subsequently 3x10^5, 1x10^5, and 0.3x10^5 spleen cells were seeded with or without 10 µM peptide in RPMI 1640/10% FCS in duplicates in nitrocellulose-bottomed 96-well plates (MultiScreen MAIP N45, Millipore GmbH) coated with an IFN-γ specific coating antibody (Mabtech) and blocked with cell culture medium and incubated overnight. The development of the murine IFN-γ ELISPOT was done as described for the human ELISPOT, with the exception that PBS/0.05% Tween 20 was used as washing buffer and the biotinylated anti-mouse IFN-γ antibody (Mabtech, diluted in PBS/1% BSA) as detection antibody. Table 1: Sequence listing
For the molecule SEQ ID NO: 16 (LLTAALWYV), the “T cell IFN-γ responses after immunization of mice” value (shortened to “T cell IFN-γ responses”) was “high T cell IFN-γ responses”.

For the molecule SEQ ID NO: 8 (LLHFYTVPI), the “T cell IFN-γ responses” value is recorded as “high T cell IFN-γ responses”.

Consider SEQ ID NO: 15 (FLIGALLTV), for which the “T cell IFN-γ responses” value is reported as “high T cell IFN-γ responses”.

For SEQ ID NO: 12 (SLVASFVEV), the “T cell IFN-γ responses” value was “high T cell IFN-γ responses”.

SEQ ID NO: 10 (LLTAALWYI): the “T cell IFN-γ responses” value is “high T cell IFN-γ responses”.

On to SEQ ID NO: 3 (LILQGPPYV), for which the “T cell IFN-γ responses” value is given as “high T cell IFN-γ responses”.

For SEQ ID NO: 7 (SVSEFLLQL), the “T cell IFN-γ responses” value was “high T cell IFN-γ responses”.

Staying with this test, now noted: HLA-A2/k^b transgenic mice, modified versus parental peptides; Fig. 6.
Turning to SEQ ID NO: 16 (LLTAALWYV), the “immune responses in the mouse model in comparison to control experiments and parental epitopes” value (from here on “immune responses in the mouse model”) is listed as “enhanced immune responses”.

On to SEQ ID NO: 15 (FLIGALLTV), for which the “immune responses in the mouse model” value is recorded as “enhanced immune responses”.

Regarding SEQ ID NO: 12 (SLVASFVEV), the “immune responses in the mouse model” value is “enhanced immune responses”.

The next test has as its target T1, human leukocyte antigen A2 (HLA-A2) on …. Briefly: competitive binding assay on acid-stripped JY cells, flow cytometry.
Conditions: not given
B3: the binding result is given as “binds”.

With B4, the binding result is given as “binds”.

Take B5: the binding result is reported as “binds”.

As for B6, the binding result is on record as “binds”.

As for B7, the binding result is “binds”.

As for B8, the binding result is “binds”.

In the case of B9, the binding result is “binds”.

Take B10: the binding result is on record as “binds”.

On to B11, for which the binding result was “binds”.

As for B12, the binding result is reported as “binds”.
